The record followed here is PubChem BioAssay (NCI).

Some test systems named below: DLD-1 colon; DMS 273 small cell lung; LXFL 529 NSCLC; M19-MEL melanoma; SNB-78 CNS; XF 498 CNS; DMS 114 small cell lung; HOP-18 NSCLC; RXF-631 renal.
Common to all, as to test: growth of human tumour cells (NCI), 48 h

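These data come from cells grown in 96-well plates and exposed to compound for 48 hours at five concentrations. At the TGI there is no net growth.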 Where a SMILES comes first, the peptide text is derived from it. [ ]: non-standard residue; d: D form. The star is where a group is joined. ξ: configuration not given here. NMeF = CN[CH](Cc1ccccc1)C(=O)O; ξNMe2Val = CC(C)C(C(=O)*)N(C)C; NMeV = CN[CH](C(=O)O)C(C)C; ξNMeV = CNC(C(=O)O)C(C)C; Boc = CC(C)(C)OC(=O)*; OBn = c1ccc(CO*)cc1; OtBu = CC(C)(C)O*

For `CCO/C(O)=c1/s/c(=C(\C#N)c2nc3ccccc3[nH]2)n(-c2ccccc2)c1=N`, the TGI with DLD-1 colon, in the experiment with DMS 273 small cell lung, with LXFL 529 NSCLC, in the experiment on M19-MEL melanoma, with SNB-78 CNS and in the experiment on XF 498 CNS was greater than 100 µM throughout.

Turning to `NC(=S)N1N=C2c3ccccc3CCC[C@H]2[C@@H]1c1ccccc1`, the TGI in the experiment with DLD-1 colon is 25.7 µM; with DMS 114 small cell lung, 50.8 µM; in the experiment on DMS 273 small cell lung, 11.3 µM; in the experiment on LXFL 529 NSCLC, 18.2 µM; with M19-MEL melanoma it was greater than 100 µM; in the experiment on SNB-78 CNS it was 61.9 µM. Further, the TGI in the experiment on XF 498 CNS came out at 16.5 µM.

Turning to `CC(C)C(C(=O)N(C)C(Cc1ccccc1)C(=O)N(C)C(C(=O)N(C)C(C(=O)N1CCCC1C(=O)OC(C)(C)C)C(C)C)C(C)C)N(C)C` (configuration not stated) (ξNMe2Val-[NMeF][NMeV][NMeV]P-OtBu; configuration not given here), the TGI in the experiment with DMS 114 small cell lung was greater than 100 µM; in the experiment with DMS 273 small cell lung, 84.1 µM; in the experiment on LXFL 529 NSCLC it was greater than 100 µM; with M19-MEL melanoma it was greater than 100 µM; in the experiment on XF 498 CNS, 86.1 µM.

Turning to `CC(=O)Nc1ccc(/C=c2\sc3nnc(-c4cccnc4)n3c2=O)cc1`, the TGI worked out at 40.7 µM with DLD-1 colon; 32.4 µM in the experiment on DMS 114 small cell lung; 68.5 µM with DMS 273 small cell lung; 55.6 µM in the experiment with HOP-18 NSCLC; 30.8 µM in the experiment with LXFL 529 NSCLC; 37.4 µM in the experiment on M19-MEL melanoma. For the same molecule, the results for the TGI in the experiment with RXF-631 renal and in the experiment on SNB-78 CNS were 55.2 µM and greater than 100 µM, respectively.

For the molecule `CC(C)C(C(=O)N(C)[C@H](C(=O)N1CCC[C@H]1C(=O)N(C)[C@@H](Cc1ccccc1)C(=O)OCc1ccccc1)C(C)C)N(C)C(=O)[C@@H](NC(=O)OC(C)(C)C)C(C)C` (some centres not stated) (Boc-V[ξNMeV][NMeV]P[NMeF]-OBn), the TGI was greater than 31.6 µM with DLD-1 colon; greater than 31.6 µM in the experiment on DMS 114 small cell lung; greater than 31.6 µM in the experiment with DMS 273 small cell lung; greater than 100 µM in the experiment with HOP-18 NSCLC; greater than 100 µM in the experiment on LXFL 529 NSCLC; greater than 31.6 µM in the experiment on M19-MEL melanoma. The TGI in the experiment on SNB-78 CNS and in the experiment on XF 498 CNS was greater than 31.6 µM each time.

For the molecule `CSC(C1c2ccccc2N(C)c2[nH]c(=O)n(C)c(=O)c21)S(=O)(=O)c1ccc(C)cc1` (configuration not stated), the TGI with DLD-1 colon, in the experiment with DMS 114 small cell lung, in the experiment with DMS 273 small cell lung, with HOP-18 NSCLC, with LXFL 529 NSCLC and with M19-MEL melanoma was greater than 100 µM in each case. Besides, the TGI in the experiment with SNB-78 CNS and in the experiment with XF 498 CNS was greater than 100 µM in each case.

On to `CN(C)CCC[N+]1=Nc2cccc3cccc(c23)N1`, for which the TGI with DLD-1 colon is 35.8 µM; in the experiment with DMS 114 small cell lung it was greater than 100 µM; in the experiment on DMS 273 small cell lung it was 59.5 µM; in the experiment with HOP-18 NSCLC, greater than 100 µM; in the experiment with LXFL 529 NSCLC, greater than 100 µM; in the experiment on M19-MEL melanoma, greater than 100 µM. Further, the TGI with RXF-631 renal, in the experiment on SNB-78 CNS and in the experiment with XF 498 CNS was greater than 100 µM in each case.

For `COC(=O)C(CCC1(C)OCCO1)=[N+]=[N-]`, the TGI in the experiment on DLD-1 colon, in the experiment on DMS 114 small cell lung, in the experiment with DMS 273 small cell lung, in the experiment on HOP-18 NSCLC, in the experiment on LXFL 529 NSCLC and with RXF-631 renal was greater than 100 µM in each case. For the same molecule, the TGI with SNB-78 CNS and in the experiment on XF 498 CNS was greater than 100 µM throughout.

Consider `O=C1[C@@H]2C(c3ccccc3[N+](=O)[O-])=NO[C@@H]2C(=O)N1c1ccc(Cc2ccc(N3C(=O)[C@H]4C(c5ccccc5[N+](=O)[O-])=NO[C@H]4C3=O)cc2)cc1`, for which the TGI in the experiment on DLD-1 colon, with DMS 114 small cell lung, in the experiment with HOP-18 NSCLC, with LXFL 529 NSCLC and in the experiment with SNB-78 CNS was greater than 100 µM in each case.

Regarding `COc1ccc(C2=Nc3ccccc3N=C(SC)C2)cc1`, the TGI with DLD-1 colon, with DMS 114 small cell lung, in the experiment with DMS 273 small cell lung, in the experiment on HOP-18 NSCLC, with LXFL 529 NSCLC and with M19-MEL melanoma was greater than 100 µM each time. Further, the TGI with RXF-631 renal, in the experiment on SNB-78 CNS and in the experiment on XF 498 CNS was greater than 100 µM in each case.

As to `CC12CCc3ccccc3C1=NNC(=O)C2` (configuration not stated), the TGI in the experiment on DLD-1 colon, in the experiment on DMS 114 small cell lung, with DMS 273 small cell lung, in the experiment on HOP-18 NSCLC, in the experiment on LXFL 529 NSCLC and with M19-MEL melanoma was greater than 100 µM each time. Besides, the TGI in the experiment with SNB-78 CNS and with XF 498 CNS was greater than 100 µM throughout.

Take `CCCCCCCCCCCC[N+]12CC[N+](C)(CC1)CC2`: the TGI in the experiment with DLD-1 colon is greater than 100 µM; with DMS 114 small cell lung, 44.6 µM; in the experiment with DMS 273 small cell lung, 15.1 µM; with HOP-18 NSCLC, greater than 100 µM; with LXFL 529 NSCLC, greater than 100 µM; in the experiment on M19-MEL melanoma, 70.9 µM. The TGI in the experiment on SNB-78 CNS stood at 76 µM; in the experiment on XF 498 CNS, 80 µM.

Regarding `COc1ccc(NC(=O)C(=O)Cc2ccc([N+](=O)[O-])c([N+](=O)[O-])c2CC(=O)C(=O)Nc2ccc(OC)cc2OC)c(OC)c1`, the TGI with DLD-1 colon, with DMS 114 small cell lung, with DMS 273 small cell lung, in the experiment on HOP-18 NSCLC, with LXFL 529 NSCLC and in the experiment on M19-MEL melanoma was greater than 100 µM in each case. Also, the TGI in the experiment on RXF-631 renal and with SNB-78 CNS was greater than 100 µM in each case.

With `O=C1Nc2ccc(Cl)c(I)c2C1=O`, the TGI in the experiment on DLD-1 colon amounted to 31.4 µM; in the experiment with DMS 114 small cell lung it was 34.2 µM; in the experiment on DMS 273 small cell lung, 30.8 µM; in the experiment on LXFL 529 NSCLC it was 30.5 µM; in the experiment on M19-MEL melanoma, 24.9 µM; with XF 498 CNS, 34.2 µM.

As to `CCCCCCCCCCCCCS(=O)(=O)NCC(N)=O`, the TGI with DLD-1 colon, in the experiment on DMS 114 small cell lung, in the experiment with HOP-18 NSCLC, in the experiment on LXFL 529 NSCLC, in the experiment with M19-MEL melanoma and in the experiment with SNB-78 CNS was greater than 100 µM in each case. For the same molecule, in the experiment with XF 498 CNS, the TGI was greater than 100 µM.

Turning to `Brc1ccc(-c2cc3c(cc2C2SCCS2)OCO3)cc1`, the TGI in the experiment with DLD-1 colon, in the experiment with DMS 114 small cell lung, in the experiment on DMS 273 small cell lung, in the experiment on HOP-18 NSCLC, in the experiment with LXFL 529 NSCLC and with M19-MEL melanoma was greater than 100 µM in each case. Besides, the TGI in the experiment on SNB-78 CNS and in the experiment on XF 498 CNS was greater than 100 µM each time.

Take `CCCCOC(=O)NC(=O)c1cn(CCCOC(=O)CCCCCCCCC(=O)OCCCn2cc(C(=O)NC(=O)OCCCC)c(=O)n(C)c2=O)c(=O)n(C)c1=O`: the TGI in the experiment on DLD-1 colon, with DMS 114 small cell lung, in the experiment on DMS 273 small cell lung, in the experiment with LXFL 529 NSCLC, in the experiment on M19-MEL melanoma and with RXF-631 renal was greater than 100 µM throughout. The TGI with SNB-78 CNS and in the experiment on XF 498 CNS was greater than 100 µM in each case.

As for `Cc1ccc(Nc2nc(-c3ccc(-c4ccc([N+](=O)[O-])cc4)o3)cs2)cc1`, the TGI with DLD-1 colon, with DMS 273 small cell lung, with LXFL 529 NSCLC, in the experiment on M19-MEL melanoma and in the experiment with SNB-78 CNS was greater than 100 µM each time.

Turning to `COc1ccc([C@H]2CC3C(=O)N(c4ccc(OC)cc4)C(=O)C3c3[nH]c4ccccc4c32)cc1` (some centres not stated), the TGI in the experiment on DLD-1 colon, in the experiment on DMS 114 small cell lung, in the experiment with DMS 273 small cell lung, in the experiment with LXFL 529 NSCLC, in the experiment with M19-MEL melanoma and in the experiment on SNB-78 CNS was greater than 100 µM each time. In the experiment with XF 498 CNS, this molecule gave a TGI of 95.9 µM.

For the molecule `Cc1nn2c(c1C#N)NNc1c-2sc(=N)nnc1=O`, the TGI with DLD-1 colon, with HOP-18 NSCLC, with LXFL 529 NSCLC and in the experiment with M19-MEL melanoma was greater than 100 µM throughout.

Take `O=C(NC1=C(Cl)C(=O)c2ccccc2C1=O)C(=O)C(C(=O)c1ccc2ccccc2c1)C1OC(=O)c2ccccc21` (configuration not stated): the TGI was determined as 16.9 µM with DLD-1 colon; 15.1 µM in the experiment on DMS 114 small cell lung; 17.7 µM in the experiment with LXFL 529 NSCLC; 0.856 µM in the experiment with M19-MEL melanoma; 15.4 µM in the experiment on SNB-78 CNS.

Turning to `CC#COS(=O)(=O)c1ccc(C)cc1`, the TGI with DLD-1 colon, with DMS 114 small cell lung, in the experiment with LXFL 529 NSCLC, with M19-MEL melanoma and in the experiment on SNB-78 CNS was greater than 100 µM each time.
